# From ChEMBL document CHEMBL6121054, “Discovery of Metabolic Reprogramming 2-Quinolones as Effective Antimicrobials for MRSA-Infected Wound Therapy” (J Med Chem, 2025)
# Legend:
# Format in all cases: functional
# Staphylococcus aureus [1] = test: Antibacterial activity against Staphylococcus aureus DU1090 incubated for 16 to 24 hrs by broth microdilution method; details: time 16-24 hrs
# Listeria monocytogenes [2] = test: Antibacterial activity against Listeria monocytogenes EGD incubated for 16 to 24 hrs by broth microdilution method; details: time 16-24 hrs
# Listeria monocytogenes [3] = test: Antibacterial activity against Listeria monocytogenes ATCC 19115 incubated for 16 to 24 hrs by broth microdilution method; details: time 16-24 hrs
# Staphylococcus aureus [4] = test: Antibacterial activity against Staphylococcus aureus ATCC 25923 incubated for 16 to 24 hrs by broth microdilution method; details: time 16-24 hrs
# Staphylococcus aureus [5] = test: Antibacterial activity against Staphylococcus aureus USA300 incubated for 16 to 24 hrs by broth microdilution method; details: time 16-24 hrs
# Staphylococcus aureus [6] = test: Antibacterial activity against Staphylococcus aureus USA400 incubated for 16 to 24 hrs by broth microdilution method; details: time 16-24 hrs
# Staphylococcus aureus [7] = test: Antibacterial activity against Staphylococcus aureus ATCC 25904 incubated for 16 to 24 hrs by broth microdilution method; details: time 16-24 hrs
# Staphylococcus aureus [8] = test: Antibacterial activity against Staphylococcus aureus ATCC 29213 incubated for 16 to 24 hrs by broth microdilution method; details: time 16-24 hrs
# Staphylococcus aureus [9] = test: Antibacterial activity against Staphylococcus aureus NCTC 8325-4 incubated for 16 to 24 hrs by broth microdilution method; details: time 16-24 hrs
# Staphylococcus aureus [10] = test: Antibacterial activity against methicillin-resistant Staphylococcus aureus MRSA 1 incubated for 16 to 24 hrs by broth microdilution method
# Staphylococcus aureus [11] = test: Induction of resistance development in Staphylococcus aureus USA300 assessed as fold increase in MIC incubated for 24 hrs measured after 14 passages by broth microdilution method
# Staphylococcus aureus [12] = test: Antibacterial activity against methicillin-resistant Staphylococcus aureus MRSA 2 incubated for 16 to 24 hrs by broth microdilution method; details: time 16-24 hrs
# Streptococcus suis = test: Antibacterial activity against Streptococcus suis ZY05719 incubated for 16 to 24 hrs by broth microdilution method; details: time 16-24 hrs
# [13] = Staphylococcus aureus, MRSA 1, time 16-24 hrs, read-out: MIC
MIC (Staphylococcus aureus [1]) [µg/mL],MIC (Listeria monocytogenes [2]) [µg/mL],MIC (Listeria monocytogenes [3]) [µg/mL],MIC (Staphylococcus aureus [4]) [µg/mL],MIC (Staphylococcus aureus [5]) [µg/mL],MIC (Staphylococcus aureus [6]) [µg/mL],MIC (Staphylococcus aureus [7]) [µg/mL],MIC (Staphylococcus aureus [8]) [µg/mL],MIC (Staphylococcus aureus [9]) [µg/mL],Structure (SMILES),MIC (Staphylococcus aureus [10]; [13]) [µg/mL],MIC (Staphylococcus aureus [10]; time 16-24 hrs) [µg/mL],fold change (FC) (Staphylococcus aureus [11]),MIC (Staphylococcus aureus [12]) [µg/mL],MIC (Streptococcus suis) [µg/mL]
0.96,0.21,0.29,5.33,4.67,6.67,3.42,> 8,> 8,CCn1c(=O)c(C(=O)Nc2nnc(-c3ccc(C(F)(F)F)cn3)s2)c(O)c2ccccc21,,,,,
0.5,0.49,0.5,0.46,0.46,1.29,0.48,0.67,1.25,CCn1c(=O)c(C(=O)Nc2nnc(-c3ccc(F)cn3)s2)c(O)c2ccccc21,,,,,
0.12,0.16,0.49,0.15,0.14,0.14,0.19,0.18,0.1,CCn1c(=O)c(C(=O)Nc2nnc(-c3cc(C)ccn3)s2)c(O)c2ccccc21,,,,,
0.05,0.06,0.05,0.2,0.06,0.07,0.19,1.13,0.27,CCn1c(=O)c(C(=O)Nc2nnc(-c3ccc(Br)cn3)s2)c(O)c2ccccc21,,,,,
0.63,0.63,0.63,0.63,0.63,0.63,0.63,0.63,0.63,CC1(C)S[C@H]([C@H](NC(=O)Cc2ccccc2)C(=O)NCc2ccccc2)N[C@H]1C(=O)N[C@H](Cc1ccccc1)[C@H](O)CC(=O)NCc1nc2ccccc2[nH]1,,,,,
0.02,0.02,0.02,0.04,0.17,0.08,0.04,0.2,0.05,CCn1c(=O)c(C(=O)Nc2nnc(-c3cccc(C)n3)s2)c(O)c2ccccc21,,,,,
> 8,> 8,> 8,> 8,> 8,> 8,> 8,> 8,> 8,CCn1c(=O)c(C(=O)Nc2nnc(-c3ncccc3C)s2)c(O)c2ccccc21,,,,,
0.1,0.17,0.2,0.15,0.11,0.17,0.08,0.14,0.1,CCn1c(=O)c(C(=O)Nc2nnc(-c3ncccc3F)s2)c(O)c2ccccc21,,,,,

Structure (SMILES),MIC (Staphylococcus aureus [1]) [µg/mL],MIC (Listeria monocytogenes [2]) [µg/mL],MIC (Listeria monocytogenes [3]) [µg/mL],MIC (Staphylococcus aureus [4]) [µg/mL],MIC (Staphylococcus aureus [5]) [µg/mL],MIC (Staphylococcus aureus [6]) [µg/mL],MIC (Staphylococcus aureus [7]) [µg/mL],MIC (Staphylococcus aureus [8]) [µg/mL],MIC (Staphylococcus aureus [9]) [µg/mL],MIC (Staphylococcus aureus [10]; [13]) [µg/mL],MIC (Staphylococcus aureus [10]; time 16-24 hrs) [µg/mL],fold change (FC) (Staphylococcus aureus [11]),MIC (Staphylococcus aureus [12]) [µg/mL],MIC (Streptococcus suis) [µg/mL]
CN[C@H](CC(C)C)C(=O)N[C@H]1C(=O)N[C@@H](CC(N)=O)C(=O)N[C@H]2C(=O)N[C@H]3C(=O)N[C@H](C(=O)N[C@H](C(=O)O)c4cc(O)cc(O)c4-c4cc3ccc4O)[C@H](O)c3ccc(c(Cl)c3)Oc3cc2cc(c3O[C@@H]2O[C@H](CO)[C@@H](O)[C@H](O)[C@H]2O[C@H]2C[C@](C)(N)[C@H](O)[C@H](C)O2)Oc2ccc(cc2Cl)[C@H]1O [VANCOMYCIN],1.67,,1.83,2.67,2.33,2.5,3,1.71,1.83,2.33,1.33,16,1.33,0.15
CN(C)c1cc(NC(=O)CNC(C)(C)C)c(O)c2c1C[C@H]1C[C@H]3[C@H](N(C)C)C(O)=C(C(N)=O)C(=O)[C@@]3(O)C(O)=C1C2=O [TIGECYCLINE],0.23,,0.2,0.92,0.16,0.19,0.83,0.1,0.27,,,,0.54,0.07
CNC(C)[C@@H]1CC[C@@H](N)[C@@H](O[C@H]2[C@H](O)[C@@H](O[C@H]3OC[C@](C)(O)[C@H](NC)[C@H]3O)[C@H](N)C[C@@H]2N)O1.CN[C@@H]1[C@@H](O)[C@@H](O[C@@H]2[C@@H](O)[C@H](O[C@H]3O[C@H](C(C)N)CC[C@H]3N)[C@@H](N)C[C@H]2N)OC[C@]1(C)O.CN[C@@H]1[C@@H](O)[C@@H](O[C@@H]2[C@@H](O)[C@H](O[C@H]3O[C@H](CN)CC[C@H]3N)[C@@H](N)C[C@H]2N)OC[C@]1(C)O (some centres not stated),1.54,,6,2.67,4,3.67,> 4,3,5.33,> 4,5.33,,> 4,6
